ChEMBL document CHEMBL5291721, “A preclinical secondary pharmacology resource illuminates target-adverse drug reaction associations of marketed drugs” (Nat Commun, 2023)

Legend:
[1] = target: T1, Amine oxidase [flavin-containing] A (Homo sapiens, UniProt P21397); assay type: functional
T1 sequence (P21397 whole entry): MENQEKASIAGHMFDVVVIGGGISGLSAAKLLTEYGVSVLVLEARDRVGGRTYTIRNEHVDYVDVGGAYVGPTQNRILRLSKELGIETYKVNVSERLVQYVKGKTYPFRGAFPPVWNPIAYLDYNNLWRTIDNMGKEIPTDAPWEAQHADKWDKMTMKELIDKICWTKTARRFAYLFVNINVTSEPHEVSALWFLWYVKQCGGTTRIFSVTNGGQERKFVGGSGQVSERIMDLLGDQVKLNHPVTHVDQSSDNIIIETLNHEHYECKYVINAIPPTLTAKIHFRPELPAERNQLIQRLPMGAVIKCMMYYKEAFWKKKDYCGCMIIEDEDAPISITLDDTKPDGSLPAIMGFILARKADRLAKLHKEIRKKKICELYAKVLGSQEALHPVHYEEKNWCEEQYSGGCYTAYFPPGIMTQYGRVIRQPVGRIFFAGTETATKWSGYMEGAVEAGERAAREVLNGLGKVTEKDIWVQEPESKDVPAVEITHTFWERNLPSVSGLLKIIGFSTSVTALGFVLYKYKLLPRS

[2] = target: T2, 5-hydroxytryptamine receptor 2B (Homo sapiens, UniProt P41595); assay type: functional, cell-based
[3] = target: T2, 5-hydroxytryptamine receptor 2B; assay type: functional, cell-based; remark: listed apart in the source
Estrogen receptor = target: T3, Estrogen receptor (Homo sapiens, UniProt P03372)
T3 sequence (P03372 whole entry): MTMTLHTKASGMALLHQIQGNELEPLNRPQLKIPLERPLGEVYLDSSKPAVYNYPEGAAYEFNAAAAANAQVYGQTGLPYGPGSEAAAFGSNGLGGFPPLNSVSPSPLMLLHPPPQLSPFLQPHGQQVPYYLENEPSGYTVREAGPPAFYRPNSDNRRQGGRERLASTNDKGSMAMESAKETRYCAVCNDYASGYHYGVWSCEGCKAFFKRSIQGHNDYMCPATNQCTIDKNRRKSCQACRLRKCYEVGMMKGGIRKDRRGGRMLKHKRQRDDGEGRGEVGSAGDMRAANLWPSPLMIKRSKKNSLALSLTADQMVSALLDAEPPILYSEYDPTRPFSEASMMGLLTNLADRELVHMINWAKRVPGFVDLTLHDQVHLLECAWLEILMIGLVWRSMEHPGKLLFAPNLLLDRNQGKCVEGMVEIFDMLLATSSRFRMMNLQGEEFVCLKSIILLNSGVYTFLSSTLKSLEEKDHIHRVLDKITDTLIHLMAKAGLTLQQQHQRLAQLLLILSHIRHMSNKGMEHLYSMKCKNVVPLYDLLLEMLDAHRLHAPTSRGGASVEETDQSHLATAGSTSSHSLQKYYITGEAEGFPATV

Mu-type opioid receptor = Mu-type opioid receptor (Homo sapiens, UniProt P35372)
D(3) dopamine receptor = D(3) dopamine receptor (Homo sapiens, UniProt P35462)
Glucocorticoid receptor = target: T4, Glucocorticoid receptor (Homo sapiens, UniProt P04150)
T4 sequence (P04150 whole entry): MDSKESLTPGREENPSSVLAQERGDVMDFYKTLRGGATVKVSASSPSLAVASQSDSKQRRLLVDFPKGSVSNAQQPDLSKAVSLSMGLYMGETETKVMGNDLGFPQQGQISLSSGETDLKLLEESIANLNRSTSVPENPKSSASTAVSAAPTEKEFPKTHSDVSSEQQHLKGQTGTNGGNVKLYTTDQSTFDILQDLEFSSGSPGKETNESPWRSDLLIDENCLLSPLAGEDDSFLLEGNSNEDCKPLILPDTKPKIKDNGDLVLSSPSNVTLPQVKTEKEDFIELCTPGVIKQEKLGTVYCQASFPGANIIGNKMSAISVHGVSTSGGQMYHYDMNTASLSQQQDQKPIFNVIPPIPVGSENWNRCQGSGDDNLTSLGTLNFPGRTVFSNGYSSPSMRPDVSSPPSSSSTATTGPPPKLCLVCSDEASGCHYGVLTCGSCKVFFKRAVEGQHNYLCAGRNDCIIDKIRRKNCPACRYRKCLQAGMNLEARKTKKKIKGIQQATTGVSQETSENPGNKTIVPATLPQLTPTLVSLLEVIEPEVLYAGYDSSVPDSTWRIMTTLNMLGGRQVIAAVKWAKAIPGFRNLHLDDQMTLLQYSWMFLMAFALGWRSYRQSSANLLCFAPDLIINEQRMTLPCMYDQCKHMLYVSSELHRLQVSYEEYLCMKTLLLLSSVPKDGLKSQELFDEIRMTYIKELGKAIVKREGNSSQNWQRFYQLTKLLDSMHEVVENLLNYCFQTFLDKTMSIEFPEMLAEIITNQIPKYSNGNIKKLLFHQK

Vasopressin V2 receptor = Vasopressin V2 receptor (Homo sapiens, UniProt P30518)
[4] = target: Muscarinic acetylcholine receptor M3 (Homo sapiens, UniProt P20309)
Also: assay procedure not described here.

Muscarinic acetylcholine receptor M3, sequence (P20309 whole entry): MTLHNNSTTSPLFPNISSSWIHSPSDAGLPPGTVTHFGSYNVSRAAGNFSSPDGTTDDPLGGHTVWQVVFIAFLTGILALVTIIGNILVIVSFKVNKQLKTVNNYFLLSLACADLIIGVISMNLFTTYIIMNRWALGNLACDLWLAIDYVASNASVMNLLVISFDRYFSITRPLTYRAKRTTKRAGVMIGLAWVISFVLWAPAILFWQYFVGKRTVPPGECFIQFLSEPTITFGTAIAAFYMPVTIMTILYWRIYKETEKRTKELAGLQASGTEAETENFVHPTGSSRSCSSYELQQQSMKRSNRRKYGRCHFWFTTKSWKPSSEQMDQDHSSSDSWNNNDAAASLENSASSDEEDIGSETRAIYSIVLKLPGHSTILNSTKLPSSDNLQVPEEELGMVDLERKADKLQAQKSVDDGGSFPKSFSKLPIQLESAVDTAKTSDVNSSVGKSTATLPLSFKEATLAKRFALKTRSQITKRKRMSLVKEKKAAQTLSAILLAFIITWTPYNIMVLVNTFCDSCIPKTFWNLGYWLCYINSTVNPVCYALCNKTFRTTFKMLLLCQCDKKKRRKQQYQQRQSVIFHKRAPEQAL
Mu-type opioid receptor, sequence (P35372 whole entry): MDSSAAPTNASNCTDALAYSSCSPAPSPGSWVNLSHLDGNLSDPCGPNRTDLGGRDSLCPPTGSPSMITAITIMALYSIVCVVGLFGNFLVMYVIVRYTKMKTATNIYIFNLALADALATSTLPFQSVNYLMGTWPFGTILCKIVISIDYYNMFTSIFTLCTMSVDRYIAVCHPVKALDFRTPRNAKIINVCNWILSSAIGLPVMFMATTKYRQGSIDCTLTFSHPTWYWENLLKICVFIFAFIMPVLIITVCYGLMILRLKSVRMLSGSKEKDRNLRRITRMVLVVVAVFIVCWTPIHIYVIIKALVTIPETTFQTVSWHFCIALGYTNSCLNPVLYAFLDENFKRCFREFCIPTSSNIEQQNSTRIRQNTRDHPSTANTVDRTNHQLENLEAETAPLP
Vasopressin V2 receptor, sequence (P30518 whole entry): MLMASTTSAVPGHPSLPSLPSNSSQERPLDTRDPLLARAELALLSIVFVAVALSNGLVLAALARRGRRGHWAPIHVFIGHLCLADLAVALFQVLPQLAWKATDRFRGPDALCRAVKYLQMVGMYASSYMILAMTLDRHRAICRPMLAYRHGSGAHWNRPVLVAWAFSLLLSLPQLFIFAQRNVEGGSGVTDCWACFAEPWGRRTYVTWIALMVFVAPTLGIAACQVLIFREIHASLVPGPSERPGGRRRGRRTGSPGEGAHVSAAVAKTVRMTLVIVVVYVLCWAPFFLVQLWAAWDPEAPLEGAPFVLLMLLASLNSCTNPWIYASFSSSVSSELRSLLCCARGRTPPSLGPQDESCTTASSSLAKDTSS
D(3) dopamine receptor, sequence (P35462 whole entry): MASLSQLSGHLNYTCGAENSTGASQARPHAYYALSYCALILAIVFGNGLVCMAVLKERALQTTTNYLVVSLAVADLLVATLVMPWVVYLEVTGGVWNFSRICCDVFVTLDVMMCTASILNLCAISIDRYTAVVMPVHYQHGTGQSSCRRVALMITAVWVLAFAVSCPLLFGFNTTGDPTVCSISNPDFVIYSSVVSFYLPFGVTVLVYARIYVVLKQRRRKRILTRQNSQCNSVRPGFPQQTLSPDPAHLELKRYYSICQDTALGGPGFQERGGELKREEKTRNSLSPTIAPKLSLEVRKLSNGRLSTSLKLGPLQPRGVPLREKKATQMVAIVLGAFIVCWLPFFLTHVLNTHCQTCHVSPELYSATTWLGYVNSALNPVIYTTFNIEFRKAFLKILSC
T2 sequence (P41595 whole entry): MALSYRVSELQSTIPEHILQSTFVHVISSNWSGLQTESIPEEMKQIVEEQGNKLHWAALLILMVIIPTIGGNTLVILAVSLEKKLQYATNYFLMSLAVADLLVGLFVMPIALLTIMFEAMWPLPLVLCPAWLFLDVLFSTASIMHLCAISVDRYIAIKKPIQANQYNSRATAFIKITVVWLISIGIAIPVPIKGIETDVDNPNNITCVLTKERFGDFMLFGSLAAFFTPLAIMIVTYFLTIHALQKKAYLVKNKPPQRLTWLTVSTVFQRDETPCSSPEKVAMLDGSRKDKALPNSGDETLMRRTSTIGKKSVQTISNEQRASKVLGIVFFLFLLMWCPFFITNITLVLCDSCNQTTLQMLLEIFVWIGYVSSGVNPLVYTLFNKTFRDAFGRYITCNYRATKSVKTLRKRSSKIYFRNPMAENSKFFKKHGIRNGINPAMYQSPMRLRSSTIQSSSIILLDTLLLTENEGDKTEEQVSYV

Row | SMILES | AC50 [1] [µM] | AC50 [2] [µM] | AC50 [3] [µM] | AC50 (Estrogen receptor) [µM] | AC50 (Mu-type opioid receptor) [µM] | AC50 (D(3) dopamine receptor) [µM] | AC50 (Glucocorticoid receptor) [µM] | AC50 (Vasopressin V2 receptor) [µM] | AC50 [4] [µM]
1 | CC(C)CN(C[C@@H](O)[C@H](Cc1ccccc1)NC(=O)O[C@H]1CCOC1)S(=O)(=O)c1ccc(N)cc1 | > 10 | > 10 | > 10 | > 10 | > 30 | > 30 | > 10 | > 30 | –
2 | OCC(O)COc1ccc(Cl)cc1 (centres undefined) | > 10 | > 10 | > 10 | > 10 | > 30 | > 30 | > 10 | > 10 | > 30
3 | C[C@@H](Cc1ccccc1)N(C)Cc1ccccc1 [BENZPHETAMINE] | > 10 | > 10 | > 10 | > 10 | > 30 | > 30 | > 10 | > 10 | > 30
4 | CN(Cc1ccc(C(C)(C)C)cc1)Cc1cccc2ccccc12 [BUTENAFINE] | > 10 | > 10 | > 10 | > 30 | > 30 | > 30 | > 30 | > 10 | –
5 | Nc1nc(Cl)nc2c1ncn2[C@@H]1O[C@H](CO)[C@@H](O)[C@@H]1F [CLOFARABINE] | > 30 | > 30 | > 30 | > 30 | > 30 | > 30 | – | > 30 | > 30
6 | C=C(c1ccccc1OCc1cccc(Cl)c1)n1ccnc1 [CROCONAZOLE] | > 10 | 8.5 | > 10 | > 30 | > 30 | > 30 | 3.46 | > 30 | > 30
7 | CC1CC(OC(=O)C(O)c2ccccc2)CC(C)(C)C1 (centres undefined) [CYCLANDELATE] | > 10 | > 10 | > 10 | > 30 | > 30 | > 30 | – | > 10 | –
8 | CN(C)CCOC(=O)C(c1ccccc1)C1(O)CCCC1 (centres undefined) [CYCLOPENTOLATE] | > 30 | > 10 | > 10 | > 10 | > 30 | > 30 | > 10 | > 10 | 0.04
9 | COC(=O)[C@H]1[C@H]2C[C@@H]3c4[nH]c5ccccc5c4CCN3C[C@H]2C[C@@H](OC(=O)c2cc(OC)c(OC)c(OC)c2)[C@@H]1OC [DESERPIDINE] | > 10 | > 10 | > 10 | > 30 | 8.3 | > 30 | – | > 30 | > 30
10 | CCC1(C)CC(=O)NC1=O (centres undefined) [ETHOSUXIMIDE] | > 10 | > 10 | > 10 | > 10 | > 30 | > 30 | > 10 | > 10 | –
11 | Cc1cnc(Nc2ccc(OCCN3CCCC3)cc2)nc1Nc1cccc(S(=O)(=O)NC(C)(C)C)c1 [FEDRATINIB] | > 10 | > 10 | > 10 | > 30 | 17 | 5.3 | > 30 | > 30 | 5.7
12 | CC(=O)[C@@]1(O)CC[C@H]2[C@@H]3C[C@H](C)C4=CC(=O)C=C[C@]4(C)[C@@]3(F)[C@@H](O)C[C@@]21C [FLUOROMETHOLONE] | > 10 | > 10 | > 10 | > 30 | > 30 | > 30 | 0.004 | > 10 | –
13 | CC1Cc2ccccc2N1NC(=O)c1ccc(Cl)c(S(N)(=O)=O)c1 (centres undefined) [INDAPAMIDE] | > 10 | > 10 | > 10 | > 30 | > 30 | > 30 | – | > 30 | –
14 | CC(=O)N1CCN(c2ccc(OCC3COC(Cn4ccnc4)(c4ccc(Cl)cc4Cl)O3)cc2)CC1 (centres undefined) [KETOCONAZOLE] | > 10 | 15 | > 10 | > 10 | > 30 | > 30 | > 10 | > 10 | –
15 | CN1CCC(=C2c3ccccc3CC(=O)c3sccc32)CC1 [KETOTIFEN] | > 10 | 0.09 | > 10 | > 10 | > 30 | 3 | > 10 | > 10 | –
16 | O=C(C[S+]([O-])Cc1ccco1)NC/C=C\COc1cc(CN2CCCCC2)ccn1 (centres undefined) [LAFUTIDINE] | > 10 | > 10 | > 10 | > 10 | > 30 | > 30 | > 10 | > 10 | > 30
17 | CCC1(CC)C(=O)NC(=O)N(C)C1=O [METHARBITAL] | > 10 | > 10 | > 10 | > 10 | > 30 | > 30 | > 10 | > 10 | > 30
18 | Nc1cc(N2CCCCC2)nc(N)[n+]1[O-] [MINOXIDIL] | > 10 | > 10 | > 10 | > 30 | > 30 | > 30 | > 30 | > 30 | –
19 | CC(C)(C)NCC(O)COc1cccc2c1CC(O)C(O)C2 (centres undefined) [NADOLOL] | > 10 | > 10 | > 10 | > 10 | > 30 | > 30 | > 10 | > 10 | –
20 | CCOC(=O)O[C@]1(C(=O)COC(=O)CC)CC[C@H]2[C@@H]3CCC4=CC(=O)C=C[C@]4(C)[C@H]3[C@@H](O)C[C@@]21C [PREDNICARBATE] | > 10 | > 10 | > 10 | > 30 | > 30 | > 30 | 0.017 | > 10 | > 30
21 | CC(C(=O)O)c1ccc(C(=O)c2ccccc2)s1 (centres undefined) [TIAPROFENIC ACID] | 18 | > 10 | > 10 | > 10 | > 30 | 8.6 | – | > 10 | > 30
22 | Cc1cccc(Nc2ccncc2S(=O)(=O)NC(=O)NC(C)C)c1 [TORSEMIDE] | > 10 | > 10 | > 10 | > 10 | > 30 | > 30 | > 10 | > 30 | –
23 | CCN(C(C)=O)c1cccc(-c2ccnc3c(C#N)cnn23)c1 [ZALEPLON] | > 10 | > 10 | > 10 | > 30 | > 30 | > 30 | – | > 30 | –
